From patent publication US9817000B2, “Method for identifying compounds that modulate a T2R taste receptor” (The Regents of the University of California, priority 1999, dated 2017)
Blank lines part the entries; values can stand above or below the compound they belong to.

What was measured:
μ opioid receptor = molecular target: T1, μ opioid receptor (Homo sapiens, UniProt P35372); assay: FURA-2 [Ca2+]i imaging in HEK-293 cells with Gα15 and μ opioid receptor; assay type: cell-based; details: 10 μM
T1 construct: expressed in transfected cells; host or cells: HEK-293 cells containing Gα15
T1 sequence (P35372 whole entry, species assumed): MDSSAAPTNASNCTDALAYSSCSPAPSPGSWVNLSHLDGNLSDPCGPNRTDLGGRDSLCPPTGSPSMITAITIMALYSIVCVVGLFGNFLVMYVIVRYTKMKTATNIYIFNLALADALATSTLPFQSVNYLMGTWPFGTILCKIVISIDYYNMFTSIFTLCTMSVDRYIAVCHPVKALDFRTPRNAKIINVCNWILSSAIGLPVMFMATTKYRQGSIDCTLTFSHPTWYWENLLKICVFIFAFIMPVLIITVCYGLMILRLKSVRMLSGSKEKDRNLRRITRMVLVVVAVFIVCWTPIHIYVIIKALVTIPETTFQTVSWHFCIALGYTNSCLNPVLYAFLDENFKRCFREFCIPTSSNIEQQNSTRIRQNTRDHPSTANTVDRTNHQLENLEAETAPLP
Text: (§1) In this system, receptor activation leads to increases in intracellular calcium [Ca2+]i, which can be monitored at the single cell level using the FURA-2 calcium-indicator dye (Tsien et al., Cell Calcium 6:145-157 (1985)). To test and optimize Gα15 coupling, two different GPCRs, a Gαi-coupled μ-opioid receptor (Reisine, Neuropharm. 34:463-472 (1995)) and a Gαq-coupled mGluR1 receptor (Masu et al., Nature 349:760-765 (1991)), were used. Transfection of these receptors into HEK-293 cell produced robust, agonist-selective, and Gα15-dependent Ca^2+ responses (FIG. 1).

[1] = molecular target: T2, mT2R5 coupling to gustducin (Mus musculus, UniProt Q9JKT4); assay: Tastant-induced GTPγS binding to gustducin with insect cell membranes containing rho-mT2R5; assay type: biochemical; details: 1 mM
T2 construct: infectious Bacmid containing rhodopsin tagged mT2R5 (DBA/2-allele) was produced using the Bac-to-Bac system; rhodopsin tag (rho); made in house; host or cells: insect larval cells infected with recombinant Bacmid (Bac-to-Bac baculovirus system); membrane preparation
T2 sequence (Q9JKT4 1-300): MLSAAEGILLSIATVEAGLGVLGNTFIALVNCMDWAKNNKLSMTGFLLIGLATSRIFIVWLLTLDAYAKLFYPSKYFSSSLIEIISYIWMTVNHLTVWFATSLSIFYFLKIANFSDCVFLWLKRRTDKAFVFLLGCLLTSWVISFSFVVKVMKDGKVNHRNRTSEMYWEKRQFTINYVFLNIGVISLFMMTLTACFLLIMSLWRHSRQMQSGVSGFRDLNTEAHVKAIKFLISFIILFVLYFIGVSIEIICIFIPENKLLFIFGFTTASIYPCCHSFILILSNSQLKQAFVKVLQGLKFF
Protocol: To investigate the selectivity of T2R-G-protein coupling, mT2R5 was chosen for study because its activation by cycloheximide recapitulates mouse taste responses. Rho-tagged mT2R5 and gustducin were prepared using a baculovirus expression system. mT2R5-containing membranes were incubated with various purified G-proteins, including gustducin, and measured tastant-induced GTP-γS binding (Hoon et al., Biochem J 309:629-636 (1995)). Specifically, infectious Bacmid containing rhodopsin tagged mT2R5 (DBA/2-allele) was produced using the Bac-to-Bac system (Lifetechnologies, MD). Insect larval cells were infected for 60 h with recombinant Bacmid and membranes were prepared as described previously (Ryba and Tirindelli, J Biol Chem, 270:6757-6767 (1995)). Peripheral proteins were removed by treatment with 8 M urea and membranes were resuspended in 10 mM HEPES pH7.5, 1 mM EDTA and 1 mM DTT. The expression of rho-mT2R5 was assessed by Western blot using mAb B6-30 and quantitated by comparison with known amounts of rhodopsin. Approximately 300 pmol of rho-mT2R5 could be obtained from 2×10^8 infected cells. Gustducin and Gβ1γ8 heterodimers were isolated as described previously (Hoon et al., Biochem J 309:629-636 (1995); Ryba and Tirindelli, J Biol Chem, 270:6757-6767 (1995)). Receptor-catalyzed exchange of GDP for GTPγS on gustducin and other G-protein α-subunits was measured in the presence of 10 nM rho-mT2R5, 100 μM GDP, and 20 μM Gβ1γ8. All measurements were made at 15-minute time points, and reflect the initial rate of GTPγS binding.

mT2R5 = molecular target: T3, mT2R5 (Mus musculus, UniProt Q9JKT4); assay: FURA-2 [Ca2+]i imaging in HEK-293 cells expressing Gα15 and rho-mT2R5 (taster, DBA/2 allele); assay type: cell-based
T3 construct: expressed in transfected cells; host or cells: modified HEK-293 cells (PEAKrapid) expressing Gα15; pEAK10 vector
T3 sequence (Q9JKT4 1-300): T2 sequence (Q9JKT4 1-300)
Text: as §1
(§2) A number of studies have shown that many GPCRs, in particular sensory receptors, require specific “chaperones” for maturation and targeting through the secretory pathway (Baker et al., Embo J 13:4886-4895 (1994); Dwyer et al., Cell 93:455-466 (1998)). Recently, Krautwurst et al. (Cell 95:917-926 (1998)) generated chimeric receptors consisting of the first 20 amino acids of rhodopsin and various rodent olfactory receptors. These were targeted to the plasma membrane and functioned as odorant receptors in HEK-293 cells. To determine whether rhodopsin sequences can also help target T2Rs to the plasma membra, rhodopsin-T2R chimeras (rho-T2Rs) were constructed. […] Similar results were obtained with 11 human and 16 rodent T2Rs (see below). To further enhance the level of T2R expression, rho-T2Rs were placed under the control of a strong EF-1α promoter, and introduced as episomal plasmids into modified HEK-293 cells expressing Gα15 (pEAKrapid cells).
(§3) A bridge overlap PCR extension technique was used to generate rho-T2R chimeras, which contain the first 39 amino acids of bovine rhodopsin in frame with human and rodent T2R coding sequences (Mehta and Singh, Biotechniques 26:1082-1086 (1999). All receptors were cloned into a pEAK10 mammalian expression vector (Edge Biosystems, MD). Modified HEK-293 cells (PEAK^rapid cells; Edge BioSystems, MD) were grown and maintained at 37° C. in UltraCulture medium (Bio Whittaker) supplemented with 5% fetal bovine serum, 100 μg/ml Gentamycin sulphate (Fisher), 1 μg/ml Amphotericin B and 2 mM GlutaMax I (Lifetechnologies). For transfection, cells were seeded onto matrigel coated 24-well culture plates or 35 mm recording chambers. After 24 h at 37° C., cells were washed in OptiMEM medium (Lifetechnologies) and transfected using LipofectAMINE reagent (Lifetechnologies). Transfection efficiencies were estimated by co-transfection of a GFP reporter plasmid, and were typically >70%. Immunofluoresence staining, and activity assays were performed 36-48 h after transfection.
(§4) Transfected cells were washed once in Hank's balanced salt solution with 1 mM sodium pyruvate and 10 mM HEPES, pH 7.4 (assay buffer), and loaded with 2 μM FURA-2 AM (Molecular Probes) for 1 h at room temperature. The loading solution was removed and cells were incubated in 200 μl of assay buffer for 1 h to allow the cleavage of the AM ester. For most experiments, 24-well tissue culture plates containing cells expressing a single rho-T2R were stimulated with 200 μl of a 2× tastant solution (see next section). [Ca^2+]i changes were monitored using a Nikon Diaphot 200 microscope equipped with a 10×/0.5 fluor objective with the TILL imaging system (T.I.L.L Photonics GmbH). Acquisition and analysis of the fluorescence images used TILL-Vision software. Generally, [Ca^2+]i was measured for 80-120 s by sequentially illuminating cells for 200 ms at 340 nm and 380 nm and monitoring the fluorescence emission at 510 nm using a cooled CCD camera. The F340/F380 ratio was analyzed to measure [Ca^2+]i.
(§5) Kinetics of activation and deactivation were measured using a bath perfusion system. Cells were seeded onto a 150 μl microperfusion chamber, and test solutions were pressure-ejected with a picospritzer apparatus (General Valve, Inc.). Flow-rate was adjusted to ensure complete exchange of the bath solution within 4-5 s. […]

mT2R8 = molecular target: T4, mT2R8 (Mus musculus, UniProt Q9JKT3); assay: FURA-2 [Ca2+]i imaging in HEK-293 cells expressing Gα15 and rho-mT2R8; assay type: cell-based; details: high concentrations
T4 construct: expressed in transfected cells; host or cells: HEK-293 cells (PEAKrapid) expressing Gα15
T4 sequence (Q9JKT3 1-297): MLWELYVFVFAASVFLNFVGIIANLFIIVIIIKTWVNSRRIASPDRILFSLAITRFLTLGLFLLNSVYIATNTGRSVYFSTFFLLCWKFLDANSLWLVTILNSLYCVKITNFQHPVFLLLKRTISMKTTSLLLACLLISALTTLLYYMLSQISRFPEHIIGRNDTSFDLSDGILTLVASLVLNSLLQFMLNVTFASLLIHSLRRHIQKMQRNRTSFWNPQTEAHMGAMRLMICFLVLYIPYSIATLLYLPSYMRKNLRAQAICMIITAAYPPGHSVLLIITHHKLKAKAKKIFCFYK
Text: as §1, §2, §3
as §4, with “For most experiments, 24-well tissue culture plates containing cells expressing a single rho-T2R were stimulated with 200 μl of a 2× tastant solution (see next section).” left out
Kinetics of activation and deactivation were measured using a bath perfusion system. […]

hT2R4 = molecular target: T5, hT2R4 (Homo sapiens, UniProt Q9NYW5); assay: FURA-2 [Ca2+]i imaging in HEK-293 cells expressing Gα15 and rho-hT2R4; assay type: cell-based; details: high concentrations
T5 construct: Full-length hT2Rs were isolated by PCR amplification of genomic DNA; expressed in transfected cells; host or cells: HEK-293 cells (PEAKrapid) expressing Gα15
T5 sequence (Q9NYW5 1-299): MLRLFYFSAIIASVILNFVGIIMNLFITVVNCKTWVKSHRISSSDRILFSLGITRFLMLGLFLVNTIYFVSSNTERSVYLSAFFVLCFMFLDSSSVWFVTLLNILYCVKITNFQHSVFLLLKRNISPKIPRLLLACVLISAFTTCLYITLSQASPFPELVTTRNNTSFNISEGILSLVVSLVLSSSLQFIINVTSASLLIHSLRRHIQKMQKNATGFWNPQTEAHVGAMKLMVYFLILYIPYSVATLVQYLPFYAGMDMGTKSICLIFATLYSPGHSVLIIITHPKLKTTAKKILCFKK
Text: as §1, §2, §3, §4, §5

mGluR1 receptor = molecular target: T6, mGluR1 receptor (Rattus norvegicus, UniProt P23385); assay: FURA-2 [Ca2+]i imaging in HEK-293 cells with Gα15 and mGluR1 receptor; assay type: cell-based; details: 20 μM
T6 construct: expressed in transfected cells; host or cells: HEK-293 cells containing Gα15
T6 sequence (P23385 19-1199): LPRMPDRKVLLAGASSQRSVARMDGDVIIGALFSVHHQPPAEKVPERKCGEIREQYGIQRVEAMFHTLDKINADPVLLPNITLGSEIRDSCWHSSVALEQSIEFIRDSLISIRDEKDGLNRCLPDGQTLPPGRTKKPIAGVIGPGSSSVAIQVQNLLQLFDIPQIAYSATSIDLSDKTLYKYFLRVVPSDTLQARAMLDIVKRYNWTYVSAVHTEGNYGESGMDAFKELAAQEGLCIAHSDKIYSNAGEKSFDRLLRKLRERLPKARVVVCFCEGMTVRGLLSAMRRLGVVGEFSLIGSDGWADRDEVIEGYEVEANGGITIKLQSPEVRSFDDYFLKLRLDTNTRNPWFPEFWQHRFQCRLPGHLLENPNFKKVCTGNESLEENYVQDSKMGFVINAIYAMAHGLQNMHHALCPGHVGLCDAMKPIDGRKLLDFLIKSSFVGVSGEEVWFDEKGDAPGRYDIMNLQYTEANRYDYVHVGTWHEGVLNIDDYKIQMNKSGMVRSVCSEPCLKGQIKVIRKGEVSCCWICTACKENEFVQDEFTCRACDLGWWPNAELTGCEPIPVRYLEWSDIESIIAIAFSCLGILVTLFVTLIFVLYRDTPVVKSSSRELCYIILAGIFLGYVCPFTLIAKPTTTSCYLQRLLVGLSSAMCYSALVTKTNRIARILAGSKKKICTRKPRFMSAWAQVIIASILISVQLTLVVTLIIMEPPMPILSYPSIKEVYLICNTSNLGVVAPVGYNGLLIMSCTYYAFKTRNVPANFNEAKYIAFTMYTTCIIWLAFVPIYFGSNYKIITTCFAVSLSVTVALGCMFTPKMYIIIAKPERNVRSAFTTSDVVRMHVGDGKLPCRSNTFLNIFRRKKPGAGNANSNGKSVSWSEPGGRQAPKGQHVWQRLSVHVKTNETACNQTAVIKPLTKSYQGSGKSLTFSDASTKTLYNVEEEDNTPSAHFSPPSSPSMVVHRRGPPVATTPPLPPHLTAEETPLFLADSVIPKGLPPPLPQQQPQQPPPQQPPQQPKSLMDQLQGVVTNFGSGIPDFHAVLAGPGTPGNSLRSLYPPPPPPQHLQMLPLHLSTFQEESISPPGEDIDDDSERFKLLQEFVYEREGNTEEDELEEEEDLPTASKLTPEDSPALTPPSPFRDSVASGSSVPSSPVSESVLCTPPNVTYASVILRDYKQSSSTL
Text: as §1

Structure (SMILES): C[C@@H](NC(=O)[C@@H](N)Cc1ccc(O)cc1)C(=O)NCC(=O)N(C)[C@@H](Cc1ccccc1)C(=O)NCCO [DAMGO]
[Ca2+]i response (μ opioid receptor): increase in [Ca2+]i

Structure (SMILES): CN1[C@@H]2CC[C@H]1C[C@@H](OC(=O)C(CO)c1ccccc1)C2 (stereo partly shown) [atropine]
gustducin activation [1]: not | [Ca2+]i response to tastant (mT2R5; 5 mM): not observed

gustducin activation [1]: not | [Ca2+]i response to tastant (mT2R5; 3 mM): not observed
Structure (SMILES): CC(=O)OC[C@H]1O[C@@](COC(C)=O)(O[C@H]2O[C@H](COC(C)=O)[C@@H](OC(C)=O)[C@H](OC(C)=O)[C@H]2OC(C)=O)[C@@H](OC(C)=O)[C@@H]1OC(C)=O [sucrose octaacetate]

gustducin activation [1]: not | [Ca2+]i response to tastant (mT2R5; 10 mM): not observed
Structure (SMILES): O=C1NS(=O)(=O)c2ccccc21 [saccharin]

Structure (SMILES): Cn1c(=O)c2c(ncn2C)n(C)c1=O [caffeine]
gustducin activation [1]: not

Structure (SMILES): COc1cc2c(cc1OC)[C@@]13CCN4CC5=CCO[C@H]6CC(=O)N2[C@H]1[C@H]6[C@H]5C[C@H]43 [brucine]
gustducin activation [1]: not | [Ca2+]i response to tastant (mT2R5; 5 mM): not observed

[Ca2+]i response to tastant (mT2R5; 2 mM): not observed
Structure (SMILES): O=C(O)/C=C/c1ccc(O)c(O)c1 [caffeic acid]

gustducin activation [1]: not | receptor activation (mT2R8): activated | [Ca2+]i response (hT2R4): also responded | [Ca2+]i response to tastant (mT2R5; 10 mM): not observed
Structure (SMILES): CCCc1cc(=O)[nH]c(=S)[nH]1 [6-n-propyl thiouracil]

Structure (SMILES): N[C@@]1(C(=O)O)CC[C@H](C(=O)O)C1 (racemic) [ACPD, trans (±) 1-amino-1,3 cyclopentane dicarboxylic acid]
[Ca2+]i response (mGluR1 receptor): increase in [Ca2+]i

gustducin activation [1]: not
Structure (SMILES): C=C[C@H]1C[N@@]2CC[C@H]1C[C@H]2[C@H](O)c1ccnc2ccc(OC)cc12 [quinine]

Structure (SMILES): NC(=S)Nc1ccccc1 [phenyl thiocarbamide]
gustducin activation [1]: not | [Ca2+]i response to tastant (mT2R5; 3 mM): not observed
